Results reported in ChEMBL document CHEMBL1137288, “Antiprotozoal activities of new bis-chlorophenyl derivatives of bicyclic octanes and aza-nonanes” (Bioorg Med Chem Lett, 2006).
pIC50: −log10 of the molar value.

Tests used:
[1] = test system: Trypanosoma brucei rhodesiense; assay: Antiprotozoal activity against Trypanosoma brucei rhodesiense STIB900; format: functional, organism-based
[2] = Selectivity index, IC50 for L6 cells/ IC50 for Trypanosoma brucei rhodesience; format: functional
[3] = test system: Plasmodium falciparum; assay: Antiprotozoal activity against chloroquine-, pyrimethamine-resistant Plasmodium falciparum K1; format: functional, organism-based
[4] = test system: L6; assay: Cytotoxicity against L6 cells; format: cell-based; conditions: Rattus norvegicus
[5] = Selectivity index, IC50 for L6 cells/IC50 for Plasmodium falciparum K1; format: functional
[6] = test system: Trypanosoma brucei brucei; assay: Survival of NMRI mouse infected with Trypanosoma brucei brucei at 50 mg/kg, ip; format: functional; conditions: route intraperitoneal
[7] = test system: Trypanosoma brucei brucei; assay: Survival of NMRI mouse infected with Trypanosoma brucei brucei at 0.5 mg/kg, ip; format: functional; conditions: route intraperitoneal

Compound	pIC50 [1]	Ratio IC50 [2]	pIC50 [3]	pIC50 [4]	Ratio IC50 [5]	Mean survival days [6]	Mean survival days [7]
O/N=C1\CC2(N3CCCCC3)CC(c3ccc(Cl)cc3)C1C(c1ccc(Cl)cc1)C2 (centres undefined)	5.48	2.62	6.30	5.06	17.5	–	–
OC1CC2(N3CCCCC3)CC(c3ccccc3)C1C(c1ccccc1)C2 (centres undefined)	5.27	6.99	6.08	4.43	44.45	–	–
COc1ccc(C2CC3(N4CCCC4)CC(=O)C2C(c2ccc(OC)cc2)C3)cc1 (centres undefined)	5.43	11.34	5.47	4.38	12.44	–	–
c1ccc(C2CC3(N4CCCCC4)CCNC2C(c2ccccc2)C3)cc1 (centres undefined)	–	13.66	–	–	140.22	–	–
COc1ccc(C2CC3(N4CCCCC4)CC(O)C2C(c2ccc(OC)cc2)C3)cc1 (centres undefined)	4.85	3.13	5.30	4.35	8.95	–	–
O/N=C1/CC2(N3CCCC3)CC(c3ccc(Cl)cc3)C1C(c1ccc(Cl)cc1)C2 (centres undefined)	5.82	3.85	6.72	5.24	27.26	–	–
CN(C)C12CCNC(C(c3ccc(Cl)cc3)C1)C(c1ccc(Cl)cc1)C2 (centres undefined)	7.21	143.3	6.39	5.06	21.32	9 days	–
CN(C)C12CC(O)C(C(c3ccc(Cl)cc3)C1)C(c1ccc(Cl)cc1)C2 (centres undefined)	6.49	27.41	6.01	5.06	8.95	–	–
Clc1ccc(C2CC3(N4CCCC4)CCNC2C(c2ccc(Cl)cc2)C3)cc1 (centres undefined)	7.18	152.4	6.60	5.00	40.24	5.75 days	–
O/N=C1\CC2(N3CCCC3)CC(c3ccc(Cl)cc3)C1C(c1ccc(Cl)cc1)C2 (centres undefined)	5.77	7.49	6.29	4.90	24.82	–	–
CN(C)C12CC(=O)NC(C(c3ccccc3)C1)C(c1ccccc1)C2 (centres undefined)	4.42	7.09	5.85	< 3.57	192.2	–	–
CN(C)C12CC(=O)C(C(c3ccccc3)C1)C(c1ccccc1)C2 (centres undefined)	5.00	2.46	< 4.98	4.61	2.32	–	–
COc1ccc(C2CC3(N4CCCC4)CC(O)C2C(c2ccc(OC)cc2)C3)cc1 (centres undefined)	5.12	2.35	5.57	4.75	6.58	–	–
CN(C)C12CCNC(C(c3ccccc3)C1)C(c1ccccc1)C2 (centres undefined)	–	181.3	–	–	388.6	–	–
O/N=C1\CC2(N3CCCCC3)CC(c3ccccc3)C1C(c1ccccc1)C2 (centres undefined)	5.44	6.6	6.82	4.62	161.1	–	–
O=C1CC2(N3CCCC3)CC(c3ccccc3)C(N1)C(c1ccccc1)C2 (centres undefined)	4.42	6.58	5.06	< 3.60	28.43	–	–
Clc1ccc(C2CC3(N4CCCCC4)CCNC2C(c2ccc(Cl)cc2)C3)cc1 (centres undefined)	7.19	124.6	6.34	5.09	17.61	10.25 days	–
COc1ccc(C2CC3(N(C)C)CC(O)C2C(c2ccc(OC)cc2)C3)cc1 (centres undefined)	5.67	29.5	5.26	4.20	11.53	–	–

Compound	pIC50 [1]	Ratio IC50 [2]	pIC50 [3]	pIC50 [4]	Ratio IC50 [5]	Mean survival days [6]	Mean survival days [7]
COc1ccc(C2CC3(N4CCCCC4)CC(=O)C2C(c2ccc(OC)cc2)C3)cc1 (centres undefined)	5.00	–	5.36	–	–	–	–
OC1CC2(N3CCCCC3)CC(c3ccc(Cl)cc3)C1C(c1ccc(Cl)cc1)C2 (centres undefined)	6.36	26.34	6.43	4.94	31.32	–	–
O=C1CC2(N3CCCCC3)CC(c3ccccc3)C(N1)C(c1ccccc1)C2 (centres undefined)	4.44	6.38	4.89	3.63	17.97	–	–
O=C1CC2(N3CCCCC3)CC(c3ccccc3)C1C(c1ccccc1)C2 (centres undefined)	5.09	5.78	5.40	4.33	11.88	–	–
OC1CC2(N3CCCC3)CC(c3ccc(Cl)cc3)C1C(c1ccc(Cl)cc1)C2 (centres undefined)	6.43	9.7	6.28	5.44	6.77	–	–
CN(C)C12CC(O)C(C(c3ccccc3)C1)C(c1ccccc1)C2 (centres undefined)	5.53	44.91	< 4.81	3.88	8.52	–	–
O=C1CC2(N3CCCC3)CC(c3ccccc3)C1C(c1ccccc1)C2 (centres undefined)	5.10	3.29	5.92	4.58	22.22	–	–
OC(c1cc(C(F)(F)F)nc2c(C(F)(F)F)cccc12)C1CCCCN1 (centres undefined) [MEFLOQUINE]	–	–	–	4.94	–	–	–
CN(C)C12C/C(=N\O)C(C(c3ccc(Cl)cc3)C1)C(c1ccc(Cl)cc1)C2 (centres undefined)	5.82	5.21	6.00	5.11	7.82	–	–
C[C@@H]1CC[C@H]2[C@@H](C)C(=O)O[C@@H]3O[C@@]4(C)CC[C@@H]1[C@]32OO4 [ARTEMISININ]	–	–	8.19	–	70390	–	–
c1ccc(C2CC3(N4CCCC4)CCNC2C(c2ccccc2)C3)cc1 (centres undefined)	–	103.8	–	–	215	–	–
O/N=C1\CC2(N3CCCC3)CC(c3ccccc3)C1C(c1ccccc1)C2 (centres undefined)	5.74	7.31	7.10	4.87	168.1	–	–
Cc1ccc(C(=O)Nc2ccc(S(=O)(=O)O)c3cc(S(=O)(=O)O)cc(S(=O)(=O)O)c23)cc1NC(=O)c1cccc(NC(=O)Nc2cccc(C(=O)Nc3cc(C(=O)Nc4ccc(S(=O)(=O)O)c5cc(S(=O)(=O)O)cc(S(=O)(=O)O)c45)ccc3C)c2)c1 [SURAMIN]	8.12	629933	–	2.33	–	–	–
Nc1nc(N)nc(Nc2ccc([As]3SCC(CO)S3)cc2)n1 (centres undefined) [MELARSOPROL]	–	1995	–	–	–	–	42.5 days
OC1CC2(N3CCCC3)CC(c3ccccc3)C1C(c1ccccc1)C2 (centres undefined)	5.37	6.28	5.62	4.57	11.2	–	–
CN(C)C12C/C(=N\O)C(C(c3ccccc3)C1)C(c1ccccc1)C2 (centres undefined)	5.12	19.61	5.90	3.82	119.4	–	–
COc1ccc(C2CC3(N(C)C)CC(=O)C2C(c2ccc(OC)cc2)C3)cc1 (centres undefined)	5.30	10.47	5.27	4.28	9.66	–	–
